Assay results published in ChEMBL document CHEMBL6092220 (J Med Chem, 2024).
Activity calls are given as the source filed them. The rule behind the calls is not given here.

What was measured:
[1] = biological target: Protein cereblon/Signal transducer and activator of transcription 3 (Mus musculus) (UniProt P42227+Q8C7D2); test: In-vivo PROTAC activity at STAT3/CRBN in female CB17 SCID mouse assessed as reduction STAT3 level spleen at 10 mg/kg, iv measured at 72 hrs by Western blot analysis; format: functional, organism-based; parameters: scale not given: the % may be the effect or the level left
SU-DHL-1 [2] = test: Antiproliferative activity against human SU-DHL-1 cells assessed as cell growth inhibition incubated for 4 days by celltiter-glo assay; format: functional, cell-based; conditions: SU-DHL-1, 96 h
[3] = Antiproliferative activity against human SUPM2 cells assessed as cell growth inhibition incubated for 4 days by celltiter-glo assay; format: functional, cell-based; conditions: SUP-M2, 96 h
[4] = Cmax in ICR mouse at 5 mg/kg, iv; format: ADME, organism-based; conditions: in vivo
[5] = Clearance in ICR mouse at 5 mg/kg, iv; format: ADME, organism-based; conditions: in vivo
[6] = Apparent volume of distribution in Sprague-Dawley rat at 5 mg/kg, iv; format: ADME, organism-based; conditions: in vivo, read-out: Vz
[7] = Clearance in Sprague-Dawley rat assessed as hepatic blood flow at 5 mg/kg, iv; format: ADME, organism-based; conditions: in vivo
[8] = biological target: T1, Protein cereblon/Signal transducer and activator of transcription 1-alpha/beta (Homo sapiens, UniProt P42224+Q96SW2); test: PROTAC activity at STAT1/CRBN in human PBMC cells assessed as reduction in STAT1 level incubated for 20 hrs by Western blot analysis; format: cell-based
[9] = biological target: Protein cereblon/Signal transducer and activator of transcription 2 (Homo sapiens) (UniProt Q96SW2+P52630); test: PROTAC activity at STAT2/CRBN in human PBMC cells assessed as reduction in STAT2 level upto 40 uM incubated for 20 hrs by Western blot analysis; format: cell-based
[10] = biological target: Protein cereblon/Signal transducer and activator of transcription 5A (Homo sapiens) (UniProt P42229+Q96SW2); test: PROTAC activity at STAT5A/CRBN in human PBMC cells assessed as reduction in STAT5A level upto 40 uM incubated for 20 hrs by Western blot analysis; format: cell-based
[11] = biological target: T2, Protein cereblon/Signal transducer and activator of transcription 3 (Homo sapiens, UniProt P40763+Q96SW2); test: PROTAC activity at his-SUMO-tagged STAT3 (127 to 688 residues)/CRBN in human SU-DHL-1 cells assessed as reduction in STAT3 level at 0.1 to 4000 nM incubated for 20 hrs by Western blot analysis relative to control; format: cell-based; conditions: dose 0.1-4000 nM
[12] = Apparent permeability across apical to basolateral side in human Caco-2 cells; format: ADME, cell-based
hERG (KCNH2) = hERG (KCNH2) (Homo sapiens, UniProt Q12809); test: Inhibition of hERG at 3 uM relative to control; format: toxicity
[13] = Stability in dog Hepatocyte assessed as half life; format: ADME, cell-based, Canis lupus familiaris; conditions: hepatocytes
[14] = Stability in Non human primate Hepatocyte assessed as half life; format: ADME, cell-based; conditions: hepatocytes
[15] = Stability in human plasma assessed as half life; format: ADME, cell-free
[16] = Stability in mouse plasma assessed as parent compound remaining at […]; format: ADME, cell-free; conditions: read-out: Stability
[17] = Stability in rat plasma assessed as parent compound remaining at […]; format: ADME, cell-free; conditions: read-out: Stability
Cytochrome P450 2C9 = Cytochrome P450 2C9 (Homo sapiens, UniProt P11712); test: Inhibition of CYP2C9 (unknown origin); format: ADME
Cytochrome P450 2C19 = Cytochrome P450 2C19 (Homo sapiens, UniProt P33261); test: Inhibition of CYP2C19 (unknown origin); format: ADME
Cytochrome P450 3A4 [18] = biological target: T3, Cytochrome P450 3A4 (Homo sapiens, UniProt P08684); test: Inhibition of CYP3A4 (unknown origin) using midazolam as substrate; format: ADME
Cytochrome P450 3A4 [19] = biological target: T3, Cytochrome P450 3A4; test: Inhibition of CYP3A4 (unknown origin) using testosterone as substrate; format: ADME
[20] = biological target: T1, Protein cereblon/Signal transducer and activator of transcription 1-alpha/beta; test: PROTAC activity at STAT1/CRBN in human SU-DHL-1 cells assessed as reduction in STAT1 level upto 40 uM incubated for 20 hrs by Western blot analysis; format: cell-based
SU-DHL-1 [21] = test: PROTAC activity at STAT5/CRBN in human SU-DHL-1 cells assessed as reduction in STAT5 level upto 40 uM incubated for 20 hrs by Western blot analysis; format: cell-based
[22] = biological target: T2, Protein cereblon/Signal transducer and activator of transcription 3; test: PROTAC activity at his-SUMO-tagged STAT3 (127 to 688 residues)/CRBN in human Pfeiffer cells assessed as reduction in STAT3 level upto 40 uM incubated for 4 hrs by Western blot analysis relative to control; format: cell-based; parameters: scale not given: the % may be the effect or the level left
[23] = biological target: T4, Signal transducer and activator of transcription 3 (Homo sapiens, UniProt P40763); test: Binding affinity to STAT3 (unknown origin) by FP assay
[24] = biological target: Signal transducer and activator of transcription 1-alpha/beta (Homo sapiens, UniProt P42224); test: Binding affinity to STAT1 (unknown origin) by FP assay
[25] = biological target: T4, Signal transducer and activator of transcription 3; test: Binding affinity to STAT3 (unknown origin) assessed as maximum inhibition by FP assay relative to control
[26] = biological target: Signal transducer and activator of transcription 6 (Homo sapiens) (UniProt P42226); test: Binding affinity to STAT6 (unknown origin) assessed as maximum inhibition by FP assay relative to control
[27] = biological target: T2, Protein cereblon/Signal transducer and activator of transcription 3; test: PROTAC activity at his-SUMO-tagged STAT3 (127 to 688 residues)/CRBN in human MOLM16 cells assessed as reduction in STAT3 level at 10 uM incubated for 4 hrs by multiplexed quantitative proteomics analysis relative to control; format: cell-based; parameters: scale not given: the % may be the effect or the level left
[28] = Drug concentration in female CB17 SCID mouse plasma at 5 mg/kg, iv measured at 24 hrs by LC-MS/MS analysis; format: ADME, organism-based
[29] = Drug concentration in female CB17 SCID mouse plasma at 5 mg/kg, iv measured at 48 hrs by LC-MS/MS analysis; format: ADME, organism-based
[30] = Drug concentration in female CB17 SCID mouse plasma at 5 mg/kg, iv measured at 72 hrs by LC-MS/MS analysis; format: ADME, organism-based
[31] = Drug concentration in female CB17 SCID mouse liver at 5 mg/kg, iv measured at 6 hrs by LC-MS/MS analysis; format: ADME, organism-based; conditions: read-out: Ct
[32] = Drug concentration in female CB17 SCID mouse liver at 5 mg/kg, iv measured at 48 hrs by LC-MS/MS analysis; format: ADME, organism-based; conditions: read-out: Ct
[33] = Drug concentration in female CB17 SCID mouse tumor at 5 mg/kg, iv measured at 6 hrs by LC-MS/MS analysis; format: ADME, organism-based, Neoplasm; conditions: read-out: Ct
[34] = Drug concentration in female CB17 SCID mouse tumor at 5 mg/kg, iv measured at 24 hrs by LC-MS/MS analysis; format: ADME, organism-based, Neoplasm; conditions: read-out: Ct
[35] = Drug concentration in female CB17 SCID mouse tumor at 5 mg/kg, iv measured at 72 hrs by LC-MS/MS analysis; format: ADME, organism-based, Neoplasm; conditions: read-out: Ct
[36] = Antitumor activity against human MOLM16 cells xenografted in mouse assessed as tumor regression at 5 mg/kg, iv; format: functional, MOLM-16
[37] = Toxicity in mouse at 5 to 20 mg/kg, iv; format: organism-based; conditions: in vivo, dose 5-20 mg/kg
[38] = Antitumor activity against human MOLM16 cells xenografted in mouse assessed as tumor growth inhibition at 10 mg/kg, iv; format: functional, MOLM-16; conditions: read-out: TGI

Q: Which results are given for COC(=O)N1CC[C@H]2CC[C@@H](C(=O)N[C@@H](CCC(N)=O)C(=O)N[C@@H](Cc3ccc(F)c(F)c3)C(=O)N3CCC(CCC#Cc4cccc5c4CN(C4CCC(=O)NC4=O)C5=O)CC3)N2C(=O)[C@@H](NC(=O)c2cc3cc(C(F)(F)P(=O)(O)O)ccc3s2)C1 (stereo partly specified)?
A: Activity [1]: > 90%; IC50 (SU-DHL-1 [2]): 430 nM; IC50 [3]: 390 nM; Cmax [4]: 130000 ng/mL; clearance [5]: 3.06 mL/h/kg; Vd [6]: 0.12 L/kg; QH [7]: 2.6%; DC50 [8]: 1600 nM; Activity [9]: inactive; Activity [10]: inactive; Emax [11]: > 95%; Papp [12]: 0.14 10^-6 cm/s; inhibition at 3 µM (hERG (KCNH2)): 1.3%; t1/2 [13]: > 2 h; half-life [14]: > 2 h; t1/2 [15]: > 2 h; remaining at 2 h [16]: 101%; remaining at 2 h [17]: 94%; IC50 (Cytochrome P450 2C9): > 10000 nM; IC50 (Cytochrome P450 2C19): > 10000 nM; IC50 (Cytochrome P450 3A4 [18]): > 10000 nM; IC50 (Cytochrome P450 3A4 [19]): > 10000 nM; Activity [20]: inactive; Activity (SU-DHL-1 [21]): inactive; Activity [22]: > 95%; IC50 [23]: 19 nM; IC50 [24]: 270 nM; Imax [25]: 100%; Imax [26]: 10%; Activity [27]: 85%; concentration at 24 h [28]: 17100 ng/mL; concentration at 48 h [29]: 12400 ng/mL; concentration at 72 h [30]: 8430 ng/mL; concentration at 6 h [31]: 3570 ng/g; concentration at 48 h [32]: 1130 ng/g; concentration at 6 h [33]: 3150 ng/g; concentration at 24 h [34]: 1800 ng/g; concentration at 72 h [35]: 925 ng/g; Activity [36]: 76%; Activity [37]: Non-toxic; inhibition in vivo at 10 mg/kg [38]: 54%
